Assay results as given in ChEMBL document CHEMBL3259563, “The discovery of potent and selective non-steroidal glucocorticoid receptor modulators, suitable for inhalation” (Bioorg Med Chem Lett, 2014).
Converted amounts (≈) assume the structure as drawn.

What was measured:
[1] = Clearance in iv dosed rat; format: ADME, organism-based; settings: in vivo
[2] = Volume of distribution at steady state in iv dosed rat; format: ADME, organism-based; settings: in vivo, read-out: Vdss
Glucocorticoid receptor [3] = target: T1, Glucocorticoid receptor (Homo sapiens, UniProt P04150)
T1 sequence (P04150 whole entry): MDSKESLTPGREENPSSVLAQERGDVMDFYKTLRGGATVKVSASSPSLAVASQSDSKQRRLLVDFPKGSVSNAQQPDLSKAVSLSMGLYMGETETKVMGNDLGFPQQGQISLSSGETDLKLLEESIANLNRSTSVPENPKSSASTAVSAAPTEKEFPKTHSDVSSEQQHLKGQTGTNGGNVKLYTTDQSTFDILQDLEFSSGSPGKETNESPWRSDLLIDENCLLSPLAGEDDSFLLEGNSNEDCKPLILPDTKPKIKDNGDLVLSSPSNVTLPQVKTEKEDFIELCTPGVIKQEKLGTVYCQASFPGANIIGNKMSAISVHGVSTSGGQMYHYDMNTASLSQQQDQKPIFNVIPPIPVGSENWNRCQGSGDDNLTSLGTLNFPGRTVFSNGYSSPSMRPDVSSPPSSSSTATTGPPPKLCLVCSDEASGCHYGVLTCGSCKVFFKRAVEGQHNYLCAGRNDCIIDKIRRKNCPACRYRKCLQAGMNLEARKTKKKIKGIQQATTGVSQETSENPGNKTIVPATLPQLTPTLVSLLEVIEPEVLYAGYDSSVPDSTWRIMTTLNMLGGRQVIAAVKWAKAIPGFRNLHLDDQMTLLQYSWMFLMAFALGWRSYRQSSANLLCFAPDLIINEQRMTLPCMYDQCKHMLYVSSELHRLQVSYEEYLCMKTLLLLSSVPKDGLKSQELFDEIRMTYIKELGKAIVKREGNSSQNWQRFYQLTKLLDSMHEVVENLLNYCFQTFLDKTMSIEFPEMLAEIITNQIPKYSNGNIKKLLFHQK
Description: Agonist activity at glucocorticoid receptor in human PBMC assessed as inhibition of LPS-stimulated TNF-alpha release

[4] = target: T2, Mineralocorticoid receptor (Homo sapiens, UniProt P08235); experiment: Binding affinity to mineralocorticoid receptor (unknown origin)
T2 sequence (P08235 whole entry): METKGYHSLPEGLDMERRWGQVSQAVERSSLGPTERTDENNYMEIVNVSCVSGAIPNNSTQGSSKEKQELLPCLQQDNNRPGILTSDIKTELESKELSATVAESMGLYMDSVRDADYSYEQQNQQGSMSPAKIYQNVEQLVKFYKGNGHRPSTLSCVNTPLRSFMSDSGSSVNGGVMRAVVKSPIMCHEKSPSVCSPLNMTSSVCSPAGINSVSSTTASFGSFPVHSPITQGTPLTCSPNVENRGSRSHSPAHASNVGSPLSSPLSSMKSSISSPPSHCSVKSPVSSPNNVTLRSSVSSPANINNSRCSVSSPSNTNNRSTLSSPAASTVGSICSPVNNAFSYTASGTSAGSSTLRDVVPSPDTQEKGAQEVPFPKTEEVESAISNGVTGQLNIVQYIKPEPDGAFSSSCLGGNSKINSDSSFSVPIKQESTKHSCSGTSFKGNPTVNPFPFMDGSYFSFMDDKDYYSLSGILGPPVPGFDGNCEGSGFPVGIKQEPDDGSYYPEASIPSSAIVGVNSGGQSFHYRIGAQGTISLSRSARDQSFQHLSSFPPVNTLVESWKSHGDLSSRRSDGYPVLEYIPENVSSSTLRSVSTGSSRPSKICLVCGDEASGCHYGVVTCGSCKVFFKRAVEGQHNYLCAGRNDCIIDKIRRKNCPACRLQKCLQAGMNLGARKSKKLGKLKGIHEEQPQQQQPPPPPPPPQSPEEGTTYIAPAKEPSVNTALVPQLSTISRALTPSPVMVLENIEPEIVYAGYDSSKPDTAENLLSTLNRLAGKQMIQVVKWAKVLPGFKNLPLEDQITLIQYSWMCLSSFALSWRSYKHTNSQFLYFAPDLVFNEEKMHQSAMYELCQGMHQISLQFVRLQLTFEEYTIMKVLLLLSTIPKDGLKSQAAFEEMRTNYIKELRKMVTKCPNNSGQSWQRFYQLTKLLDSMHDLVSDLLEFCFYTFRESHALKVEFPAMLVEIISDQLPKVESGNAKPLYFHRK

[5] = Lipophilicity, log D of the compound at pH 7.4; format: physicochemical; settings: buffer
Estrogen receptor = target: T3, Estrogen receptor (Homo sapiens, UniProt P03372); experiment: Binding affinity to ER-alpha (unknown origin)
T3 sequence (P03372 whole entry): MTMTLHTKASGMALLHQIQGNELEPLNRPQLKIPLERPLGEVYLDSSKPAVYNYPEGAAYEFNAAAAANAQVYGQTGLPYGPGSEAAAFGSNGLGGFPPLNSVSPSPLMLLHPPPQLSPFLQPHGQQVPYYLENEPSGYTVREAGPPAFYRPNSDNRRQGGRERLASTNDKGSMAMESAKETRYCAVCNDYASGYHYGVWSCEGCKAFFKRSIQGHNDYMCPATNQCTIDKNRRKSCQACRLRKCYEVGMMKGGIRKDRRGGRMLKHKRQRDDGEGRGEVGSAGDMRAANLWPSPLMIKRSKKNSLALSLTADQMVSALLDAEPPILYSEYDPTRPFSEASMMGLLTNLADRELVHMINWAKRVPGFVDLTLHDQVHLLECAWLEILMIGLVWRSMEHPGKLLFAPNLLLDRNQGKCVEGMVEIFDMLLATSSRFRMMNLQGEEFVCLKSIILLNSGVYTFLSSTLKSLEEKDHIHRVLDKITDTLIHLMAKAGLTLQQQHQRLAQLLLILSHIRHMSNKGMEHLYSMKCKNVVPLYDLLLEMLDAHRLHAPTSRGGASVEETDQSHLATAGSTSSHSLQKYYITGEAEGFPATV

Hepatocyte [6] = experiment: Intrinsic clearance in rat hepatocytes; format: ADME, cell-based
Estrogen receptor beta = Estrogen receptor beta (Homo sapiens, UniProt Q92731); experiment: Binding affinity to ER-beta (unknown origin)
Glucocorticoid receptor [7] = target: T1, Glucocorticoid receptor; remark: listed apart in the source
Description: Agonist activity at glucocorticoid receptor in human Chago K1 cells assessed as gene transrepression by Lac-Z reporter gene assay

[8] = Intrinsic clearance in human microsomes; format: ADME, Microsome
Lung = experiment: Drug uptake in intratracheally dosed rat lung after 4 hrs; format: ADME, organism-based; settings: in vivo, inhaled_or_intranasal
[9] = Intrinsic clearance in rat microsomes; format: ADME, Microsome
[10] = Thermodynamic solubility of the crystalline compound in 0.1 M phosphate buffer at pH 7.4 at 25 degC after 24 hrs; format: physicochemical; settings: read-out: Therm_solubility
Hepatocyte [11] = experiment: Intrinsic clearance in human hepatocytes; format: ADME, cell-based
[12] = Thermodynamic solubility of the amorphous compound in 0.1 M phosphate buffer at pH 7.4 at 25 degC after 24 hrs; format: physicochemical; settings: read-out: Therm_solubility
[13] = Half life in iv dosed rat; format: ADME, organism-based; settings: in vivo
Cytochrome P450 2D6 = Cytochrome P450 2D6 (Homo sapiens, UniProt P10635); experiment: Inhibition of CYP2D6 (unknown origin); format: ADME
[14] = target: Voltage-gated inwardly rectifying potassium channel KCNH2 (Homo sapiens, UniProt Q12809); experiment: Inhibition of human ERG channel
Voltage-gated inwardly rectifying potassium channel KCNH2, sequence (Q12809 whole entry): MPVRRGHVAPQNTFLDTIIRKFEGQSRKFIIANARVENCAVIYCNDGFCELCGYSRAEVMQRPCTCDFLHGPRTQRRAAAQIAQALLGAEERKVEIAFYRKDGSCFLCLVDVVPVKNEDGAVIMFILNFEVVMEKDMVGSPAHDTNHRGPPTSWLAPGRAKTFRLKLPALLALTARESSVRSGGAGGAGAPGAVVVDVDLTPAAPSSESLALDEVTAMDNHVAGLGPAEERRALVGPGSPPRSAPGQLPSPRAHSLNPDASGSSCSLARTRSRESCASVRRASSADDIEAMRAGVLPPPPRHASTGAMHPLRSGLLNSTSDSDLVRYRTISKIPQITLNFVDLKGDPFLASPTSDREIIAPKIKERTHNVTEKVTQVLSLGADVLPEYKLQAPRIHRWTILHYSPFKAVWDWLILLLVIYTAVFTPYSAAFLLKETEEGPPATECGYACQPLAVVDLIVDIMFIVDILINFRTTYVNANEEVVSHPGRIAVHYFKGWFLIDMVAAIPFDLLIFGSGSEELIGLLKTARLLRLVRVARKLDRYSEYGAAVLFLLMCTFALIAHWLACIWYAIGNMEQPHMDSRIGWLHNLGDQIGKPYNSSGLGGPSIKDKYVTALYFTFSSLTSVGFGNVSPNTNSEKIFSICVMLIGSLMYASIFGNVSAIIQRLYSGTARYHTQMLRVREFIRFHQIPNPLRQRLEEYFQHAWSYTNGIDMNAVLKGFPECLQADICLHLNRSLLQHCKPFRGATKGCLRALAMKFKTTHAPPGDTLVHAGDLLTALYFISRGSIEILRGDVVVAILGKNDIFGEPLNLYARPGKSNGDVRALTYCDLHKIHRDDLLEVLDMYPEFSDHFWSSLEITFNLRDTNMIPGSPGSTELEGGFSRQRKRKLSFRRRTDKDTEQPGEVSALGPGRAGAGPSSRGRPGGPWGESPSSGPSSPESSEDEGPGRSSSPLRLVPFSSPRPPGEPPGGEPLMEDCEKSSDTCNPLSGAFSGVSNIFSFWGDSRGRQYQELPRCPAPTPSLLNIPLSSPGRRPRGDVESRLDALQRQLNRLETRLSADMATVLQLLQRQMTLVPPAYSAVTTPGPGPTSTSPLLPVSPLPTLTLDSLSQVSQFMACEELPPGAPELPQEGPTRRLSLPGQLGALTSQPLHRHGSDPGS

Estrogen receptor beta, sequence (Q92731 whole entry): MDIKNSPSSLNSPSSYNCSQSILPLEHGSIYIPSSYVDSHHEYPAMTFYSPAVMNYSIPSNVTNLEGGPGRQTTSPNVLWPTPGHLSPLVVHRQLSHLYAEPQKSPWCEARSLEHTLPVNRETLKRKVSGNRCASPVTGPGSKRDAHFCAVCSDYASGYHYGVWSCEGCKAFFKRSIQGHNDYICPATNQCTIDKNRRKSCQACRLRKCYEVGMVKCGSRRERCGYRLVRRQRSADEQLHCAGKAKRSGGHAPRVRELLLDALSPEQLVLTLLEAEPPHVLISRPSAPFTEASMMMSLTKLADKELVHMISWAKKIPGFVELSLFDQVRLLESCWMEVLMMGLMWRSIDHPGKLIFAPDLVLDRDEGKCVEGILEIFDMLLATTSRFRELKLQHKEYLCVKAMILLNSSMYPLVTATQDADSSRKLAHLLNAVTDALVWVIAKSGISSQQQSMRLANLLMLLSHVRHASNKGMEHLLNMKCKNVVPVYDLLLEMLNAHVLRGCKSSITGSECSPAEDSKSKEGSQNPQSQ
Cytochrome P450 2D6, sequence (P10635 whole entry): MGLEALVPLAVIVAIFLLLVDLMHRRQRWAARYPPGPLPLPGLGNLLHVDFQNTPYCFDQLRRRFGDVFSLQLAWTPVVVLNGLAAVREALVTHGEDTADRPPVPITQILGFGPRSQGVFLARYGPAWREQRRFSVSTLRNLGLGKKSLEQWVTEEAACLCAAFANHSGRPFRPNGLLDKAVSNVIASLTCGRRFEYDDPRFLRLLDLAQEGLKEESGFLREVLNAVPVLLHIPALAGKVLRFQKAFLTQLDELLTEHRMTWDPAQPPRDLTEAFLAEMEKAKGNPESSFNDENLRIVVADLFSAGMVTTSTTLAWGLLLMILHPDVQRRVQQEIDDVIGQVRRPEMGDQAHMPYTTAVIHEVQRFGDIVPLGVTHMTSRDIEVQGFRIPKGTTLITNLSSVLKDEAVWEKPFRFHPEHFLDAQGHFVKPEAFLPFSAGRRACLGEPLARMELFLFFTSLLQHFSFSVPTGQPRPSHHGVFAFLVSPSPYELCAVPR

Work on Cc1nn(C2CCCC2)c(C)c1S(=O)(=O)N[C@@H](C)CNc1cccc2c1cnn2-c1ccc(F)nc1 yielded a clearance [1] of 78 mL/min/kg, a Vd [2] of 15 L/kg and an IC50 (Glucocorticoid receptor [3]) of 14 nM. The IC50 [4] was > 5 µM, the logD [5] was 3.7 and the IC50 (Estrogen receptor) was > 5 µM. For the same compound, the CLH (Hepatocyte [6]) was 33 µL/min, the IC50 (Estrogen receptor beta) was > 5 µM and the IC50 (Glucocorticoid receptor [7]) was 7.2 nM. The microsomal CLint [8] was > 200 µL/min/mg, the Drug uptake (Lung) was “Active” and the microsomal CLint [9] was > 200 µL/min/mg. The solubility thermodynamic at 24 h [10] was 1.5 µM (≈ 0.767 µg/mL), the CLH (Hepatocyte [11]) was 47 µL/min and the solubility thermodynamic at 24 h [12] was 22 µM (≈ 11.3 µg/mL). The half-life [13] was 384 min, the IC50 (Cytochrome P450 2D6) was > 20 µM and the IC50 [14] was 8.7 µM.
